Results published in ChEMBL document CHEMBL4428063, “Novel Pyrimidine Toll-like Receptor 7 and 8 Dual Agonists to Treat Hepatitis B Virus” (J Med Chem, 2016).
Calls of active or inactive are those of the source. The rule behind the calls is not given here.

Key:
[1] = target: Toll-like receptor 2 (Homo sapiens) (UniProt O60603); assay: Agonist activity at wild-type human TLR2 expressed in HEK293 cells up to 25 uM measured after 6 hrs by NF-kappaB luciferase reporter gene assay; type: cell-based
[2] = Tmax in cynomolgus monkey plasma at 9 mg/kg, administered through oral gavage measured after 24 hrs; type: ADME, organism-based, Macaca fascicularis
[3] = Solubility of the compound; type: physicochemical
[4] = target: T1, Toll-like receptor 9 (Homo sapiens) (UniProt Q9NR96); assay: Agonist activity at wild-type human TLR9 expressed in HEK293 cells up to 25 uM measured after 6 hrs by NF-kappaB luciferase reporter gene assay; type: cell-based
T1 sequence (whole entry): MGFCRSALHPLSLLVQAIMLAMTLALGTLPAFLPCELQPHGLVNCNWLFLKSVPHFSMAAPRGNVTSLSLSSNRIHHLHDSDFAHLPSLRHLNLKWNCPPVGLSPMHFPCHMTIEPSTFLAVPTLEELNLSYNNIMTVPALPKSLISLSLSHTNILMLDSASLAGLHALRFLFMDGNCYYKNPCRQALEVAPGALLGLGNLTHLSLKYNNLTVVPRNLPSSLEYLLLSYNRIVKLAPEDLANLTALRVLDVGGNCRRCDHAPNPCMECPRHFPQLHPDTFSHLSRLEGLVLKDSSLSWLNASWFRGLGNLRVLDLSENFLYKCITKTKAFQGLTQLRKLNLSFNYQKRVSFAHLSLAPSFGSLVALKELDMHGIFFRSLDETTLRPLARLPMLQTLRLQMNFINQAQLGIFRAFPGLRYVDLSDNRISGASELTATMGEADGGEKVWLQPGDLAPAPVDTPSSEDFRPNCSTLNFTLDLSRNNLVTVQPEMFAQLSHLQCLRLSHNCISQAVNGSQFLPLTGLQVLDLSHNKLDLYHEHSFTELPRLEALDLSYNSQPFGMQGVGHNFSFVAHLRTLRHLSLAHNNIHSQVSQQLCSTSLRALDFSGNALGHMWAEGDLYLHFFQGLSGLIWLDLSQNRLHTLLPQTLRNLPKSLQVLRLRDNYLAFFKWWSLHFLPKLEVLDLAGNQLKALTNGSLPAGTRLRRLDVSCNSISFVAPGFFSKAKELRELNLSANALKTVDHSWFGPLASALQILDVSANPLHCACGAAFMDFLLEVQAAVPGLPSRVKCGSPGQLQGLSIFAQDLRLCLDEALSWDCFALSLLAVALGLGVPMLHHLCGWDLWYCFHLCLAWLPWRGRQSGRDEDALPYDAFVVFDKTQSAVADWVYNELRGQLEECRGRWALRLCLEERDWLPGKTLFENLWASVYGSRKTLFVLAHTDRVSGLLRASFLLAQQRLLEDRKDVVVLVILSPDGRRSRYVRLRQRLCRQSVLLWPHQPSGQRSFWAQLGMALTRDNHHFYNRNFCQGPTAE

[5] = Tmax in cynomolgus monkey plasma at 30 mg/kg, administered through oral gavage measured after 24 hrs; type: ADME, organism-based, Macaca fascicularis
[6] = Cmax in cynomolgus monkey plasma at 30 mg/kg, administered through oral gavage measured after 24 hrs; type: ADME, organism-based, Macaca fascicularis; design: dose 30 mg/kg, route oral
[7] = Tmax in Sprague-Dawley rat plasma at 10 mg/kg, po; type: ADME, organism-based
[8] = AUC(0 to last) in cynomolgus monkey plasma at 30 mg/kg, administered through oral gavage measured after 24 hrs; type: ADME, organism-based, Macaca fascicularis; design: dose 30 mg/kg, time 0 - last, route oral
[9] = Oral bioavailability in cynomolgus monkey at 9 mg/kg, measured after 24 hrs; type: ADME, organism-based, Macaca fascicularis; details: in vivo
[10] = target: T2, Toll-like receptor 7 (Homo sapiens) (UniProt Q9NYK1); assay: Activation of TLR7 in human PBMCs incubated for overnight duration followed by compound-treated cell supernatant conditioned media transfer to HCV1b transfected human HuH7-luc/neo replicon cells assessed as induction of INFalpha-mediated suppression of virus growth by firefly-luciferase reporter gene assay
T2 sequence (whole entry): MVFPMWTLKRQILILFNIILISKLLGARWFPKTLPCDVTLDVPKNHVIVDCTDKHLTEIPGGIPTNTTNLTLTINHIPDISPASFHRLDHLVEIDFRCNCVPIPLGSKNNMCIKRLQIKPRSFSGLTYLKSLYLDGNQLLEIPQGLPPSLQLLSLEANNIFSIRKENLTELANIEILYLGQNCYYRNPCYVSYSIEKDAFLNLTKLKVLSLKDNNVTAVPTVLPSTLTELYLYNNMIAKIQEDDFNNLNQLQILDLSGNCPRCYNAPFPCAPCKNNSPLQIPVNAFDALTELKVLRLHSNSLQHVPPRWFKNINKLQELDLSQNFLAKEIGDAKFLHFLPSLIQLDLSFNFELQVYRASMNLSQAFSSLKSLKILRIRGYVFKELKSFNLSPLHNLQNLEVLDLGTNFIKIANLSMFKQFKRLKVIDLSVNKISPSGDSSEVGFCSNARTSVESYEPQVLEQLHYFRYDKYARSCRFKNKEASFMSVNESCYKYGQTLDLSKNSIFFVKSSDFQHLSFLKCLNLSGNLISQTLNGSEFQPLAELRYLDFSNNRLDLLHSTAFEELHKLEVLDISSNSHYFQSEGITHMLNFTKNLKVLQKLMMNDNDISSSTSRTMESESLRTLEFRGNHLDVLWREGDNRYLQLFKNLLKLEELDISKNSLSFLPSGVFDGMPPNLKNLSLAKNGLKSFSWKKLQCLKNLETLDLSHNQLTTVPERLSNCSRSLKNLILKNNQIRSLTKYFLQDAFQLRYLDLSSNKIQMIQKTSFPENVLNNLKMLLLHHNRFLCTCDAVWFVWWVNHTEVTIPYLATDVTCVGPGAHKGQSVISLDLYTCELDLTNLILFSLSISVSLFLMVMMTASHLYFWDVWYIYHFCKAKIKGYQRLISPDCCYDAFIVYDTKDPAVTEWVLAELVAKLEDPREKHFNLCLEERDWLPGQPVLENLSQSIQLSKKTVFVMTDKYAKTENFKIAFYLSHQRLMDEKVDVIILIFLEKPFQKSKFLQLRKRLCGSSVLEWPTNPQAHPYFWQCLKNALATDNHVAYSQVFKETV

[11] = Intrinsic clearance in Sprague-Dawley rat hepatocytes at 1 uM measured after 120 mins; type: ADME, cell-based, Hepatocyte; details: 2 h
HepG2 = assay: Cytotoxicity against human HepG2 cells measured after 72 hrs by multiplex end point analysis; type: cell-based; details: hepg2, 72 h
human MDR1 = assay: Apparent permeability across apical to basolateral side in MDCK cells expressing human MDR1 at 1 uM by LC-MS/MS analysis; type: ADME, cell-based, Canis lupus familiaris; details: dog

Sequence of Toll-like receptor 2 (Homo sapiens) (O60603 whole entry): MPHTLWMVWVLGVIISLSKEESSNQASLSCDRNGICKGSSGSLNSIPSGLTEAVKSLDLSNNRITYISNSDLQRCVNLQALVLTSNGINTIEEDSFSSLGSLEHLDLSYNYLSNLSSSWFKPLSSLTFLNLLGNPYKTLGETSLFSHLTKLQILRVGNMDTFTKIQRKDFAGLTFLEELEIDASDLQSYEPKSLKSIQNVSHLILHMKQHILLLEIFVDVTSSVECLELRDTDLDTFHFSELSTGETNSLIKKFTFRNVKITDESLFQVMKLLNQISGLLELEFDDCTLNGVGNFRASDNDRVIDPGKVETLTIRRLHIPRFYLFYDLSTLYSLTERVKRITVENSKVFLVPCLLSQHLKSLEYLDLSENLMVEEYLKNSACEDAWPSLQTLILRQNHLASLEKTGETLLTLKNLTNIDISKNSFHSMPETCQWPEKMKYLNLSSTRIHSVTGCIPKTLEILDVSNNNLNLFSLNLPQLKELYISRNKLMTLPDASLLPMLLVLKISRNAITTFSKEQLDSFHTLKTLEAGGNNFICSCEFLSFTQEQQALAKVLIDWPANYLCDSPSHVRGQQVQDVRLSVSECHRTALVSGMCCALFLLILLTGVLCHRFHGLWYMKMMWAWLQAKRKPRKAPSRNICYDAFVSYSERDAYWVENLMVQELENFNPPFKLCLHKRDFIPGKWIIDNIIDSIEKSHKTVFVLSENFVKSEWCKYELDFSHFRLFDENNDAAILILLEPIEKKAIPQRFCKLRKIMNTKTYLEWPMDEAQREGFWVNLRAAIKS

- Activity [1]: inactive
- Tmax [2]: 0.5 to 2 h
- solubility [3]: Soluble
- Activity [4]: inactive
- Tmax [5]: 1 to 2 h
- Cmax [6]: 355 ng/mL
- Tmax [7]: 1 h
- AUC(0-t) at 24 h [8]: 583 ng·h/mL
- bioavailability [9]: 1.5%
- LED [10]: 0.5 µM
- CLH [11]: 68 µL/min
- Papp A→B at 1 µM (human MDR1): 23 ×10⁻⁶ cm/s
Structure (SMILES): CCCC[C@@H](CCO)Nc1nc(N)ncc1OC
- EC20 (HepG2): > 86 µM
